Data on 1 molecule can be found in patent US20150010933A1, “Novel Screening Methods” (The Trustees of the University of Pennsylvania, priority 2012, published 2015).

Assay type in all cases: biochemical
In assay [1] the target is ATP synthesis activity of M. smegmatis membranes. The assay can be described thus: ATP synthesis assay with M. smegmatis membranes (luciferase/luciferin luminescence, 384 well plate). The following applies: 10 μg/ml M. smegmatis membrane, 1 mM NADH, 25 μM ADP, 10 mM K-Pi, pH 7.0, total volume 20 μL; read-out: IC50, ATP synthesis activity normalized to the positive control.

The subject of assay [2] is NADH oxidase activity of M. smegmatis membranes. As to the kind of experiment: NADH oxidase activity assay with M. smegmatis membranes. Conditions: 0.2 mM NADH, 10 μg/ml membrane, pH 7.0. As for the experimental part:
FIG. 10 is a graph illustrating the effect of TMC207 on the NADH oxidase activity of M. smegmatis membranes. The assay was carried out in the presence of various concentrations of TMC207. The reactions contained 0.2 mM NADH and 10 μg/ml membrane in 50 mM Hepes/2 mM MgCl2 (pH 7.0) buffer.

Assay [3] deals with ΔpH across M. smegmatis membranes. The assay can be described thus: ΔpH across the membranes monitored with pH sensitive fluorescent dye ACMA. Conditions: 1 μM ACMA, 10 μg/ml M. smegmatis membrane, initiated with 1 mM NADH, pH 7.0. The procedure: FIG. 11 is a graph illustrating the effect of TMC207 on ΔpH across the membranes. ΔpH was monitored by using a pH sensitive fluorescent dye 9-amino-6-chloro-2-methoxyaridine (ACMA). The reactions contained 1 μM ACMA, 10 μg/ml M. smegmatis membrane in 5 mM Hepes/2 mM MgCl2 buffer (pH 7.0). The reaction was initiated by addition of 1 mM NADH (open symbols) and NADH was omitted in negative controls (closed symbols). Fluorescence was measured by a plate reader with 420 nm for excitation and 510 nm for emission wavelength.

Usually IC50 stands for the midpoint of a concentration-inhibition curve.

Take `COc1nc2ccc(Br)cc2cc1[C@@H](c1ccccc1)[C@@](O)(CCN(C)C)c1cccc2ccccc12` [TMC207, (1R,2S)-1-(6-bromo-2-methoxy-3-quinolyl)-4-dimethylamino-2-(1-naphthyl)-1-phenyl-butan-2-ol]: the IC50 in assay [1] turned out to be 0.147 nM. The “inhibition of NADH oxidase activity” value is “did not inhibit” in assay [2] (at 10 μM) and “marginal inhibition” in assay [2] (at only high concentrations). The “effect on ΔpH across the membrane” value in assay [3] is reported as “did not affect”.
